The test has as its target T1, Human VAP-1 enzyme (Homo sapiens, UniProt Q16853).
T1 construct: purchased R&D Systems, Inc
T1 sequence (Q16853 1-763): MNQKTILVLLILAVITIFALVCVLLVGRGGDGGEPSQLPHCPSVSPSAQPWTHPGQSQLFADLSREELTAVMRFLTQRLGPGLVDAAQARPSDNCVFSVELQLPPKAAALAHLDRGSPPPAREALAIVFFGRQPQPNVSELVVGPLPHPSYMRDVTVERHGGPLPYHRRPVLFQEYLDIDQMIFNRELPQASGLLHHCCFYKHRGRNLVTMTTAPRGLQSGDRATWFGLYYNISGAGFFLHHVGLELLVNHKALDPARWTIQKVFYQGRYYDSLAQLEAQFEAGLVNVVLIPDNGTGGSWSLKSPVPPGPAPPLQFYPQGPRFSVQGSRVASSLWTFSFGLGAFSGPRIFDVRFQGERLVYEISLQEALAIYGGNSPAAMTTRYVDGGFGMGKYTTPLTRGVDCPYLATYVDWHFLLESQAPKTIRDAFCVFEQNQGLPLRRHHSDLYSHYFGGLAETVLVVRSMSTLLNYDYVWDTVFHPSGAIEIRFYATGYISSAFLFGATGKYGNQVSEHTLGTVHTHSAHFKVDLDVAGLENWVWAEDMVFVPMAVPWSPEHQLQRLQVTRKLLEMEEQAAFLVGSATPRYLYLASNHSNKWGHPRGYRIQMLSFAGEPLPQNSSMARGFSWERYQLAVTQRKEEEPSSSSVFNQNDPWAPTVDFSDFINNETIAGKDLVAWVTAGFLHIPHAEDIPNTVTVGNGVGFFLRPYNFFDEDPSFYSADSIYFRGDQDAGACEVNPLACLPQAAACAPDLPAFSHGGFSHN
As to the kind of experiment: Human VAP-1 enzyme inhibition test. The format is biochemical. The note with it: 1 h; compound 30 nM; 14C-benzylamine 100 μM; read-out: inhibition ratio (human VAP-1 enzyme). Put shortly:
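Activity measured as radioactive oxidation product of 14C-benzylamine (100 μM final), extracted with toluene/ethyl acetate after citric acid stop and scintillation-counted. Enzyme (recombinant human VAP-1) first exposed to compound 20 min at room temperature, reaction then 1 h at 37 °C. Percent inhibition versus DMSO control.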
Turning to `CON=C1CN(c2ncc(-c3cccc(COC(=O)NC(=N)N)c3F)cc2F)C1` [Example 36, 2-fluoro-3-{5-fluoro-6-[3-(methoxyimino)azetidin-1-yl]pyridin-3-yl}benzyl carbamimidoylcarbamate], the inhibition at 0.03 µM was at least 50%.
As to `[2H]C([2H])([2H])ON=C1CN(c2ncc(-c3cccc(COC(=O)NC(=N)N)c3F)cc2F)C1` [Example 37, 2-fluoro-3-(5-fluoro-6-{3-[(methoxy-d3)imino]azetidin-1-yl}pyridin-3-yl)benzyl carbamimidoylcarbamate], the inhibition at 0.03 µM is at least 50%.
`N=C(N)NC(=O)OCc1cccc(-c2cnc(N3CC(=NOCCC(O)CO)C3)c(F)c2)c1F` (centres unmarked) [Example 95, 3-(6-{3-[(3,4-Dihydroxybutoxy)imino]azetidin-1-yl}-5-fluoropyridin-3-yl)-2-fluorobenzyl carbamimidoylcarbamate]: the inhibition at 0.03 µM was at least 50%.
With `N=C(N)NC(=O)OCc1cccc(-c2cnc(N3CC(=NOCC(CO)CO)C3)c(F)c2)c1F` [Example 96, 2-Fluoro-3-{5-fluoro-6-[3-{[3-hydroxy-2-(hydroxymethyl)propoxy]imino}azetidin-1-yl]pyridin-3-yl}benzyl carbamimidoylcarbamate], the inhibition at 0.03 µM is at least 50%.
Next, `N=C(N)NC(=O)OCc1cccc(-c2cnc(N3CC(=NOCC(F)CO)C3)nc2)c1F` (centres unmarked) [Example 102, 2-Fluoro-3-(2-{3-[(2-fluoro-3-hydroxypropoxy)imino]azetidin-1-yl}pyrimidin-5-yl)benzyl carbamimidoylcarbamate]: at least 50%.
